Results as given in ChEMBL document CHEMBL1126993, “Synthesis of oxazolidinone phospholipid analogue as a new inhibitor of phospholipase A2” (Bioorg Med Chem Lett, 1993).

Experiments:
Phospholipase A2 [1] = target: T1, Phospholipase A2 (Homo sapiens, UniProt P04054); assay: Tested for inhibitory activity of compound against Phospholipase A2 (PLA2); showed no significant inhibitory activity; parameters: species or system Gloydius blomhoffi
Target sequence in this assay (P04054 whole entry): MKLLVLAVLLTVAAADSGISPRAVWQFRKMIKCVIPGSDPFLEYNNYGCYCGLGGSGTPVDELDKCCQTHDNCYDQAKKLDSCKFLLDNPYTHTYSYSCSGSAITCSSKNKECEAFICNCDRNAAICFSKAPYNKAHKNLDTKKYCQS

Phospholipase A2 [2] = target: T1, Phospholipase A2; assay: Tested for binding affinity of compound against Phospholipase A2 (PLA2); conditions: Gloydius blomhoffi
Target sequence in this assay (P04054 23-148 limits assumed): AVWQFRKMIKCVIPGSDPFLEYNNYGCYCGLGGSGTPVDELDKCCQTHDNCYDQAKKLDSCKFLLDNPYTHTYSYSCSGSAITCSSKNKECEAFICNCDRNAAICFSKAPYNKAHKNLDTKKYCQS

IC50 (Phospholipase A2 [1])	1/Ki (Phospholipase A2 [2]) [M⁻¹]	SMILES
Not Active	–	CCCCCCCCCCCC(=O)N1C(=O)OC[C@H]1COP(=O)([O-])OCC[N+](C)(C)C
–	270000	CCCCCCCCCCCC(=O)N[C@H](CCCC)COP(=O)([O-])OCC[N+](C)(C)C
–	45000	CCCCCCCCCCCC(=O)N1C(=O)OC[C@@H]1COP(=O)([O-])OCC[N+](C)(C)C
